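GI50: concentration for 50% inhibition of growth. TGI: total growth inhibition.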
Experiments:
Assay in all cases: growth of human tumour cells (NCI), 384-well format
COLO 205 colon = test system: COLO 205 colon
HOP-62 NSCLC = test system: HOP-62 NSCLC
UACC-257 melanoma = test system: UACC-257 melanoma
NCI-H23 lung = test system: NCI-H23 lung
A549 NSCLC = test system: A549 NSCLC
EKVX NSCLC = test system: EKVX NSCLC
SK-MEL-28 melanoma = test system: SK-MEL-28 melanoma
PC-3 prostate = test system: PC-3 prostate
MCF7 breast = test system: MCF7 breast
MDA-MB-231 breast = test system: MDA-MB-231 breast
HT29 colon = test system: HT29 colon
HOP-92 NSCLC = test system: HOP-92 NSCLC
SN12C renal = test system: SN12C renal
BT-549 breast = test system: BT-549 breast
HS 578T breast = test system: HS 578T breast
UO-31 renal = test system: UO-31 renal
M14 melanoma = test system: M14 melanoma
SK-OV-3 ovarian = test system: SK-OV-3 ovarian
NCI-H460 NSCLC = test system: NCI-H460 NSCLC
NCI-H226 lung = test system: NCI-H226 lung
IGROV1 ovarian = test system: IGROV1 ovarian
DU-145 prostate = test system: DU-145 prostate
OVCAR-4 ovarian = test system: OVCAR-4 ovarian
ACHN renal = test system: ACHN renal
T-47D breast = test system: T-47D breast
SNB-75 CNS = test system: SNB-75 CNS
CCRF-CEM leukemia = test system: CCRF-CEM leukemia
SW-620 colon = test system: SW-620 colon
OVCAR-8 ovarian = test system: OVCAR-8 ovarian
RPMI-8226 leukemia = test system: RPMI-8226 leukemia
LOX IMVI melanoma = test system: LOX IMVI melanoma
SR leukemia = test system: SR leukemia
SF-268 CNS = test system: SF-268 CNS
MOLT-4 leukemia = test system: MOLT-4 leukemia
MDA-MB-468 breast = test system: MDA-MB-468 breast
CAKI-1 renal = test system: CAKI-1 renal
HCC-2998 colon = test system: HCC-2998 colon
HCT-15 colon = test system: HCT-15 colon
KM12 colon = test system: KM12 colon
SF-295 CNS = test system: SF-295 CNS
A498 renal = test system: A498 renal
TK-10 renal = test system: TK-10 renal
MDA-MB-435 melanoma = test system: MDA-MB-435 melanoma
OVCAR-5 ovarian = test system: OVCAR-5 ovarian
SNB-19 CNS = test system: SNB-19 CNS
OVCAR-3 ovarian = test system: OVCAR-3 ovarian
UACC-62 melanoma = test system: UACC-62 melanoma
MALME-3M melanoma = test system: MALME-3M melanoma
HL-60(TB) leukemia = test system: HL-60(TB) leukemia
NCI/ADR-RES ovarian = test system: NCI/ADR-RES ovarian
786-0 renal = test system: 786-0 renal
SK-MEL-5 melanoma = test system: SK-MEL-5 melanoma
K-562 leukemia = test system: K-562 leukemia
RXF 393 renal = test system: RXF 393 renal
NCI-H522 lung = test system: NCI-H522 lung
NCI-H322M lung = test system: NCI-H322M lung
SF-539 CNS = test system: SF-539 CNS

`C[C@@H]1OCC2(CCN(c3cnc(Sc4ccnc(N)c4Cl)c(N)n3)CC2)[C@@H]1N` gave a GI50 (COLO 205 colon) of over 100 µM, a TGI (COLO 205 colon) of over 100 µM and a GI50 (HOP-62 NSCLC) of over 100 µM. The TGI (HOP-62 NSCLC) was over 100 µM, the GI50 (UACC-257 melanoma) was over 100 µM and the TGI (UACC-257 melanoma) was over 100 µM. The GI50 (NCI-H23 lung) was 0.0797 µM, the TGI (NCI-H23 lung) was 44.2 µM and the GI50 (A549 NSCLC) was over 100 µM. The TGI (A549 NSCLC) was over 100 µM, the GI50 (EKVX NSCLC) was 16.5 µM and the TGI (EKVX NSCLC) was over 100 µM. For the same compound, the GI50 (SK-MEL-28 melanoma) was over 100 µM, the TGI (SK-MEL-28 melanoma) was over 100 µM and the GI50 (PC-3 prostate) was over 100 µM. For the same compound, the TGI (PC-3 prostate) was over 100 µM, the GI50 (MCF7 breast) was over 100 µM and the TGI (MCF7 breast) was over 100 µM. The GI50 (MDA-MB-231 breast) was over 100 µM, the TGI (MDA-MB-231 breast) was over 100 µM and the GI50 (HT29 colon) was over 100 µM. For the same compound, the TGI (HT29 colon) was over 100 µM, the GI50 (HOP-92 NSCLC) was 0.0569 µM and the TGI (HOP-92 NSCLC) was 1.05 µM. The GI50 (SN12C renal) was 3.87 µM, the TGI (SN12C renal) was over 100 µM and the GI50 (BT-549 breast) was 35.1 µM. For the same compound, the TGI (BT-549 breast) was over 100 µM, the GI50 (HS 578T breast) was over 100 µM and the TGI (HS 578T breast) was over 100 µM. For the same compound, the GI50 (UO-31 renal) was 27.6 µM, the TGI (UO-31 renal) was over 100 µM and the GI50 (M14 melanoma) was over 100 µM. For the same compound, the TGI (M14 melanoma) was over 100 µM, the GI50 (SK-OV-3 ovarian) was 25.2 µM and the TGI (SK-OV-3 ovarian) was over 100 µM. It also gave a GI50 (NCI-H460 NSCLC) of over 100 µM, a TGI (NCI-H460 NSCLC) of over 100 µM and a GI50 (NCI-H226 lung) of 1.18 µM. It also gave a TGI (NCI-H226 lung) of over 100 µM, a GI50 (IGROV1 ovarian) of 0.918 µM and a TGI (IGROV1 ovarian) of over 100 µM. It also gave a GI50 (DU-145 prostate) of over 100 µM, a TGI (DU-145 prostate) of over 100 µM and a GI50 (OVCAR-4 ovarian) of over 100 µM. The TGI (OVCAR-4 ovarian) was over 100 µM, the GI50 (ACHN renal) was 4.99 µM and the TGI (ACHN renal) was over 100 µM. It also gave a GI50 (T-47D breast) of 29.3 µM, a TGI (T-47D breast) of over 100 µM and a GI50 (SNB-75 CNS) of 51.2 µM. The TGI (SNB-75 CNS) was over 100 µM, the GI50 (CCRF-CEM leukemia) was 32 µM and the TGI (CCRF-CEM leukemia) was over 100 µM. For the same compound, the GI50 (SW-620 colon) was over 100 µM, the TGI (SW-620 colon) was over 100 µM and the GI50 (OVCAR-8 ovarian) was 44.3 µM. For the same compound, the TGI (OVCAR-8 ovarian) was over 100 µM, the GI50 (RPMI-8226 leukemia) was 21 µM and the TGI (RPMI-8226 leukemia) was over 100 µM. It also gave a GI50 (LOX IMVI melanoma) of over 100 µM, a TGI (LOX IMVI melanoma) of over 100 µM and a GI50 (SR leukemia) of 0.519 µM. For the same compound, the TGI (SR leukemia) was 13.4 µM, the GI50 (SF-268 CNS) was over 100 µM and the TGI (SF-268 CNS) was over 100 µM. For the same compound, the GI50 (MOLT-4 leukemia) was 35.9 µM, the TGI (MOLT-4 leukemia) was over 100 µM and the GI50 (MDA-MB-468 breast) was 0.0533 µM. It also gave a TGI (MDA-MB-468 breast) of 0.355 µM, a GI50 (CAKI-1 renal) of 0.426 µM and a TGI (CAKI-1 renal) of over 100 µM. For the same compound, the GI50 (HCC-2998 colon) was over 100 µM, the TGI (HCC-2998 colon) was over 100 µM and the GI50 (HCT-15 colon) was over 100 µM. It also gave a TGI (HCT-15 colon) of over 100 µM, a GI50 (KM12 colon) of 0.621 µM and a TGI (KM12 colon) of over 100 µM. For the same compound, the GI50 (SF-295 CNS) was over 100 µM, the TGI (SF-295 CNS) was over 100 µM and the GI50 (A498 renal) was 4.18 µM. It also gave a TGI (A498 renal) of over 100 µM, a GI50 (TK-10 renal) of 3.58 µM and a TGI (TK-10 renal) of over 100 µM. For the same compound, the GI50 (MDA-MB-435 melanoma) was over 100 µM, the TGI (MDA-MB-435 melanoma) was over 100 µM and the GI50 (OVCAR-5 ovarian) was over 100 µM. The TGI (OVCAR-5 ovarian) was over 100 µM, the GI50 (SNB-19 CNS) was over 100 µM and the TGI (SNB-19 CNS) was over 100 µM. The GI50 (OVCAR-3 ovarian) was 77.9 µM, the TGI (OVCAR-3 ovarian) was over 100 µM and the GI50 (UACC-62 melanoma) was over 100 µM. It also gave a TGI (UACC-62 melanoma) of over 100 µM, a GI50 (MALME-3M melanoma) of over 100 µM and a TGI (MALME-3M melanoma) of over 100 µM. For the same compound, the GI50 (HL-60(TB) leukemia) was 65.1 µM, the TGI (HL-60(TB) leukemia) was over 100 µM and the GI50 (NCI/ADR-RES ovarian) was 17.7 µM. For the same compound, the TGI (NCI/ADR-RES ovarian) was over 100 µM, the GI50 ([…]-0 renal) was over 100 µM and the TGI (786-0 renal) was over 100 µM. The GI50 (SK-MEL-5 melanoma) was over 100 µM, the TGI (SK-MEL-5 melanoma) was over 100 µM and the GI50 (K-562 leukemia) was 0.148 µM. For the same compound, the TGI (K-562 leukemia) was over 100 µM, the GI50 (RXF 393 renal) was over 100 µM and the TGI (RXF 393 renal) was over 100 µM. It also gave a GI50 (NCI-H522 lung) of 1.44 µM, a TGI (NCI-H522 lung) of over 100 µM and a GI50 (NCI-H322M lung) of 0.234 µM. The TGI (NCI-H322M lung) was over 100 µM, the GI50 (SF-539 CNS) was 34.7 µM and the TGI (SF-539 CNS) was over 100 µM.

Reference: PubChem BioAssay (NCI)
